Values quoted from earlier work, collected in patent US5220018A, “Cholecystokinin antagonists” (Merck & Co., Inc., priority 1992, dated 1993).
Non-standard residues stand in square brackets, D forms with d. Residues, ends and D or L forms follow the SMILES beside them. *: point of attachment. sY = N[C@@H](Cc1ccc(OS(=O)(=O)O)cc1)C(=O)O; Cbz = O=C(OCc1ccccc1)*

Key:
CCK-B receptors = settings: literature, Bock et al. 1989; cited from earlier work
CCK receptor = settings: literature; cited from earlier work
gastrin = settings: in vitro, literature; cited from earlier work

| Structure (SMILES) | CCK receptor activity in words (CCK receptor) | other results |
| --- | --- | --- |
| Cc1cccc(NC(=O)N[C@@H]2N=C(c3ccccc3)c3ccccc3N(C)C2=O)c1 [(R)-N-(2,3-dihydro-1-methyl-2-oxo-5-phenyl-1H-1,4-benzodiazepin-3-yl)-N^1-(3-methylphenyl) urea] | – | CCK-B receptor antagonism in words (CCK-B receptors): potent and selective antagonist of CCK-B receptors |
| CSCC[C@H](NC(=O)[C@H](Cc1ccc(OS(=O)(=O)O)cc1)NC(=O)OCc1ccccc1)C(=O)NCC(=O)N[C@@H](Cc1c[nH]c2ccccc12)C(=O)N[C@@H](CCSC)C(=O)N[C@@H](CC(=O)O)C(N)=O [Cbz-Tyr(SO3 H)-Met-Gly-Trp-Met-Asp-NH2] (Cbz-[sY]MGWMD-NH2) | partial agonist | – |
| CCCC(=O)Nc1nc2c(ncn2[C@@H]2O[C@@H]3COP(=O)(O)O[C@H]3[C@H]2OC(=O)CCC)c(=O)[nH]1 [dibutyryl cyclic GMP] | the most potent | – |
| CCCN(CCC)C(=O)C(CCC(=O)O)NC(=O)c1ccccc1 (stereo not shown) [proglumide] | – | gastrin antagonism in words (gastrin): very weak in vitro antagonists |
